PubChem BioAssay (NCI)
“And” between values parts separate entries of the source, which are not always exact repeats. Equal values may be shown once.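 Dose response: 5 concentrations. Exposure: 48 h. Format: 96-well plates. Endpoint: linear interpolation; highest concentration if not reached. Abbreviation: GI50, concentration required for 50% inhibition of growth. TGI: total growth inhibition.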

Legend:
Experiment in all cases: DTP human tumour cell line panel, 48 h
786-0 renal = system: 786-0 renal
EKVX NSCLC = system: EKVX NSCLC
HL-60(TB) leukemia = system: HL-60(TB) leukemia
HT29 colon = system: HT29 colon
OVCAR-4 ovarian = system: OVCAR-4 ovarian
U251 CNS = system: U251 CNS
UACC-62 melanoma = system: UACC-62 melanoma
UO-31 renal = system: UO-31 renal

Compound | GI50 (786-0 renal) | TGI (786-0 renal) [µM] | GI50 (EKVX NSCLC) [µM] | TGI (EKVX NSCLC) [µM] | GI50 (HL-60(TB) leukemia) | TGI (HL-60(TB) leukemia) | GI50 (HT29 colon) | TGI (HT29 colon) [µM] | GI50 (OVCAR-4 ovarian) | TGI (OVCAR-4 ovarian) [µM] | GI50 (U251 CNS) | TGI (U251 CNS) [µM] | GI50 (UACC-62 melanoma) | TGI (UACC-62 melanoma) [µM] | GI50 (UO-31 renal) | TGI (UO-31 renal)
Nc1cc(NN=C(c2ccc(O)cc2)c2ccc(O)cc2)c([N+](=O)[O-])cc1[N+](=O)[O-] | 1.83 µM | 3.43 | 2.42 | 7.45 | 3.04 µM | 14 µM | 2.63 µM | 8.19 | 2.54 µM | 7.47 | 1.93 µM | 4.15 | 1.66 µM | 3.01 | 1.81 µM | 4.87 µM
O=C(Nc1ccc(Oc2ccc(Nc3nc4ccccc4s3)cc2)cc1)Nc1ccc(Cl)c(C(F)(F)F)c1 | 1.79 µM | 4.63 | 1.62 | 5.45 | 2.21 µM | 5.59 µM | 1.72 µM | 3.23 | 1.31 µM | 3.16 | 1.61 µM | 3.55 | 1.23 µM | 2.57 | 1.22 µM | 2.82 µM
O=C(CCCSc1nc(-c2ccccc2)cc(-c2ccccc2)n1)NO | 0.585 µM | 4.34 | 2.93 | 14.5 | 2.48 µM | 6.39 µM | 2.46 µM | 12.2 | 1.67 µM | 14.9 | 1.24 µM | 3.2 | 1.32 µM | 3.21 | 0.274 µM | 1.27 µM
C[C@]12CCC3c4ccc(O)cc4CCC3C1CC[C@@]2(O)CNC(=O)/C=C/c1ccc(O)c(O)c1 (stereo partly specified) | 11.4 µM | 24.9 | 9.97 | 29.8 | 3.99 µM | 20.1 µM | 4.83 µM | 19.1 | 26.4 µM | 81.3 | 3.02 µM | 10.6 | 5.22 µM | 17 | 3.5 µM | 15.7 µM
CCC(=C/[C@H](C)C/C=C/C(C)=C/[C@@H](C)C(=O)[C@@H](C)[C@H](O)[C@@H](C)CC)/C=C/[C@H]1OC(=O)C=C[C@@H]1C | < 0.01 µM | < 0.0219 | < 0.01 | 5.21 | < 0.01 µM | 1.77 µM | < 0.01 µM | 1.15 | < 0.01 µM | 3.67 | < 0.01 µM | 1.36 | < 0.01 µM | 0.276 | < 0.01 µM | 1.87 µM
COCCOc1ccc(-c2nc3ccc(-c4nc5ccc(N6CCN(C)CC6)cc5[nH]4)cc3[nH]2)cc1 | 1.64 µM | 3.81 | 6.56 | 46.3 | 1.62 µM | 91.8 µM | 0.579 µM | > 100 | 0.313 µM | 3 | 0.659 µM | 10.2 | 0.365 µM | 2.02 | 29.4 µM | > 100 µM
COc1cc(C2CC(C)(O)Oc3cc4c(cc32)OCO4)cc(OC)c1OC (stereo unspecified) | – | > 100 | – | > 100 | – | 0.638 µM | – | > 100 | – | > 100 | – | 20.1 | – | > 100 | – | –
CCCCCCCCCCCCCCCC[N+](C)(C)Cc1ccccc1 | 1.52 µM | 2.93 | – | – | 0.859 µM | 2.45 µM | 1.01 µM | 2.36 | 1.59 µM | 4.55 | – | – | 1.36 µM | 2.98 | 2.98 µM and 2.01 µM | 22.8 µM and 8.18 µM
O=C1NC(=NC(CO)Cc2ccccc2)S/C1=C\c1ccc2ncccc2c1 (stereo unspecified) | > 25 µM and 6.96 µM | > 25 | – | – | 9.76 µM and 3.88 µM | > 25 µM and 14.3 µM | 16.2 µM and 4.74 µM | > 25 | > 21.4 µM and 4.17 µM | > 25 | > 20.9 µM and 2.29 µM | > 25 | 14.6 µM and 5.27 µM | > 25 | 16.4 µM and 5.82 µM | > 25 µM and 16.8 µM
COc1cccc(C2SC(N)=Nc3c2c(C)nn3C(=O)c2ccccc2O)c1 (stereo unspecified) | – | > 10 | – | > 10 | – | – | – | > 10 | – | > 8.45 | – | > 10 | – | > 10 | – | > 10 µM
Nc1c(C(=O)Nc2cccc(C(F)(F)F)c2)sc2nc3c(cc12)CCCCC3 | 1.58 µM | 3.13 | – | – | 15.6 µM | > 100 µM | 7.06 µM | > 100 | 1.21 µM | 3.9 | 2.2 µM | 7.98 | 2.69 µM | 16.7 | 1.64 µM | 4.88 µM
O=CNc1ccc2c(c1)C(=O)c1ccccc1-2 | – | > 100 | – | 43.1 | – | > 100 µM | – | > 100 | – | > 100 | – | > 100 | – | > 100 | – | > 100 µM
CC1(C)OC1COc1c2occc2cc2ccc(=O)oc12 (stereo unspecified) | – | > 100 | – | > 100 | – | > 100 µM | – | > 100 | – | > 100 | – | > 100 | – | > 100 | – | > 100 µM
O=C(O)c1ccc2c(c1C(=O)O)C(=O)OC2(c1ccc(O)cc1)c1ccc(O)cc1 | – | > 100 | – | > 100 | – | > 100 µM | – | > 100 | – | > 100 | – | > 100 | – | > 100 | – | > 100 µM
O=S(=O)(c1ccccc1)N1CCN(S(=O)(=O)c2ccccc2)c2ccccc21 | – | > 100 | – | 80.1 | – | – | – | > 100 | – | > 100 | – | > 100 | – | > 100 | – | > 100 µM
O=C(O)c1nc2nc(Cl)c(Cl)nc2[nH]1 | – | > 100 | – | > 100 | – | > 100 µM | – | > 100 | – | > 100 | – | > 100 | – | > 100 | – | –
O=C(Oc1ccc(Cl)cc1)c1ccccc1Nc1ccnc(C(F)(F)F)c1 | 2.71 µM | 9.75 | 25.2 | 64 | 6.48 µM | > 100 µM | – | – | – | – | – | – | 2.61 µM | 8.44 | 28.2 µM | > 100 µM
N#CC(C#N)=C/C=C(\Sc1nc2ccccc2s1)c1ccc(Cl)cc1 | 3.43 µM | 12 | 18.4 | 40 | – | – | 3.27 µM | > 31.7 | 16 µM | 47.5 | 6.82 µM | 36.4 | 8.89 µM | 29.4 | 7.85 µM | 29.3 µM
CC(=O)CC(OC(C)=O)C1=CCC2C(CC1C)OC(=O)C2C (stereo unspecified) | – | > 100 | – | > 100 | – | > 100 µM | – | > 100 | – | > 100 | – | > 100 | – | > 100 | – | –
Oc1[nH]c2ccccc2c1N=Nc1nc(-c2ccc(Br)cc2)cs1 | – | 35.8 | – | 30.4 | – | – | – | 32.9 | – | 38.9 | – | 28.1 | – | 63.2 | – | 56.2 µM
